The source of these data is patent US20130281405A1, “USE OF PC-NSAIDS TO TREAT AND/OR PREVENT PULMONARY INFLAMMATION” (priority 2012, published 2013).

The test system of series [1] is O3-induced pulmonary inflammation. In words: O3-induced pulmonary inflammation model, parenteral administration, BALF analysis. Type of series: in vivo, mice. The following applies: 10 mg/kg, BALF 24 h post exposure, FIG. 2, pilot study. The procedure: Using the O3-induced pulmonary inflammation model, we have evaluated and compared the anti-inflammatory efficacy of PC-Indomethacin vs indomethacin administered parenterally at a dose of 10 mg/kg vs vehicle control and evaluated the BALF 24 h post exposure. The white cell counts and protein concentrations of the BALF of the test groups are depicted in FIG. 2.

The test system is the same in series [2]. Kind of series: O3-induced lung injury/pulmonary inflammation model, endotracheal administration, BALF analysis. Type of series: in vivo, mice. How it is done: Because of the clinical relevance of environmental ozone exposure, and the experience of our team, with the murine model of O3-induced LI, pulmonary inflammation, and/or AHR, we have evaluated the anti-inflammatory efficacy of our PC-NSAID formulations using this robust model system. In these studies, all mice were pre-dosed (via endotracheal administration) with vehicle, indomethacin (at a dose range from 2 mg/kg), ibuprofen (5 mg/kg) or the equivalent (NSAID) doses of the PC-NSAID compositions, 1 h before and 1.5 hours after being exposed to either filtered room air or O3 (2 ppm) for 3 h and then 6 h or 24 h following the cessation of exposure airway pulmonary injury and inflammation were assessed by euthanizing the animals and collecting bronchoalveolar lavage fluid (BALF) using standard techniques. The O3 exposure protocol were chosen to allow for comparison with data of other investigators studying acute O3-induced pulmonary inflammation/AHR in mice.
In these studies, all mice were pre-dosed with vehicle (PBS), NSAID (indomethacin or ibuprofen) (at a dose of 2 mg NSAID/kg), or the equivalent (NSAID) dose of the corresponding PC-NSAID composition using an endo-tracheal delivery method refined that we refined (25 μL/rat) 1 h before and 90 minutes after being exposed to either filtered room air or O3 (2 ppm) for 3 h. The PC-Indomethacin composition was prepared dissolving indomethacin and purified PC (Phospholipon 90G from Lipoid) in a polar solvent (such as acetone), followed by vacuum removal of the solvent to form a purified PC-NSAID oil composition. This purified PC-NSAID oil composition is then added to an amount of phosphate buffered saline (PBS) followed by 30 minutes of sonication to provide a uniform composition at the appropriate dose for intra-tracheal administration. In some experiments, we prepared the PC-Indomethacin composition using Lipoid S-100 (a highly purified >98% soy PC product, as recommended by the manufacturer) instead of Phospholipon 90G, as well as comparing the effects of the purified soy PC products (S-100 and 90G) alone. […] Twenty-four hours (24 h) following the cessation of O3 exposure, pulmonary injury and inflammation were assessed by euthanizing the animals and collecting bronchoalveolar lavage (BALE) fluid using standard techniques. The collected BALF samples were centrifuged (with the cell pellet analyzed for white cells) and the supernatant analyzed for protein and prostaglandin E2, all markers of pulmonary inflammation.
The concentration of total BALF protein has been determined spectrophotometrically according to the Bradford protein assay procedure (Bio-Rad Laboratories, Inc.; Hercules, Calif.) while the levels of IL-6, MIP-2, PGE2 in the BALF are determined using a commercially available ELISA kit (Immunology Consultants Laboratories, Inc., Newberg, Oreg.), and MPO activity (by enzymatic kit provided CytoStore) in accordance to the manufacturer's instructions. Pulmonary inflammation has been determined by assessing the BALF cell differentials on Cytospin cytocentrifuge preparations. Hemoglobin has been measured by the benzidine assay.
We used a modification the protocol employed in pilot studies. In these earlier experiments, mice were pre-dosed with phosphate buffered saline (PBS) vehicle, the test NSAID (indomethacin or ibuprofen) (at a dose of 2 mg or 5 mg NSAID/kg), PC (4 mg/k or 10 mg/kg), respectively, or the equivalent (NSAID) dose of the PC-NSAID complex using an endotracheal delivery method refined in our lab (25 μL/rat) 1 h before and 90 minutes after being exposed to either filtered room air or O3 (2 ppm) for 3 h.

The nature of series [3]: Storage stability of PC-NSAID oil and reconstituted dispersions. Type of series: physicochemical. The following applies: dispersed in sodium bicarbonate buffer, stored at 4° C., FIG. 8. The procedure: The proprietary method used to prepare the purified PC-NSAIDs takes advantage of the fact that pre-dissolving indomethacin (or ibuprofen) in acetone beforehand markedly increases the solubility of PC in this polar solvent (normally PC has a very limited solubility in acetone). Thereby the NSAID and purified soy PC (Lipoid S-100) (1:1 PC to NSAID molar ratio, which correspond to 2:1 PC to NSAID weight ratio) are dissolved in acetone, in this order and incubated at 40° C. until the solution clarifies. This solution is then placed in a rotor-evaporator for at least 12 hours to remove the volatile solvent. In the case of disaturated PC, such as dipalmitoyl-PC (DPPC) (which is the major phospholipid in pulmonary surfactant) we have learned that it is important to have 2-4 times more NSAID than PC (on a molar basis) to drive the solubility of the DPPC into the polar solvent. […] With the advice of the soy lecithin manufacturer (Lipoid Inc., Heidelberg, Germany) we are transitioning to their more purified soy lecithin product (Lipoid S-100) which already is approved for parenteral administration. […] FIGS. 10-13 indicate that these PC-NSAID formulations can readily be aerosolized into particles having a diameter between 2-6 μm for deep lung deposition.

The mark [4] stands for this setting: ozone-exposed mice (2 ppm, 3 h), endotracheal dosing 1 h before and 90 min after, BALF 24 h post-exposure, *=p<0.05 vs air.

Molecules are shown by their SMILES.

Take `COc1ccc2c(c1)c(CC(=O)O)c(C)n2C(=O)c1ccc(Cl)cc1` [Indomethacin, indomethacin]: the “white cell counts and protein concentrations of the BALF (index of O3-induced pulmonary inflammation)” value in series [1] is “appeared to inhibit”. The “white cell count in BALF, effect in words” value in series [2] (O3-exposed mice, endotracheal, BALF 24 h post, FIG. 3 (indomethacin), FIG. 9A (ibuprofen, PC is DPPC)) is “increased white cell count relative to vehicle”. In addition, the “protein concentration of BALF, effect in words” value in series [2] (O3-exposed mice, endotracheal, BALF 24 h post, FIG. 4 (indomethacin), FIG. 9B (ibuprofen, PC is DPPC)) was “did not cause a similar effect”. Further, the “PGE2 concentration in BALF, effect in words” value in series [2] (O3-exposed mice, endotracheal, FIG. 6 (indomethacin), FIG. 9D (ibuprofen, PC is DPPC)) is reported as “statistically significant effect to markedly inhibit”. For the same compound, in series [2] (setting [4]), the “BALF Cell Number” value is 163 ± 53*, the “BALF MPO” value is recorded as 2.12 ± 0.43* ng/mL, the “BALF PGE2” value was 274 ± 141 pg/mL and the “BALF Protein” value is 796 ± 135* μg/mL. For the same compound, in series [3], the “stability in sodium bicarbonate buffer” value is on record as “degrades over time”.
